{"source": "ChEMBL document CHEMBL4017471", "about": "“Discovery of novel aminobenzisoxazole derivatives as orally available factor IXa inhibitors” (Bioorg Med Chem Lett, 2017)", "key": {"[1]": {"test": "Total clearance in dog at 0.3 mg/kg, iv", "assay_type": "ADME, organism-based, Canis lupus familiaris", "conditions": "in vivo; call rule not given here"}, "Cytochrome P450 2D6": {"target": "Cytochrome P450 2D6 (Homo sapiens, UniProt P10635)", "sequence (P10635 whole entry)": "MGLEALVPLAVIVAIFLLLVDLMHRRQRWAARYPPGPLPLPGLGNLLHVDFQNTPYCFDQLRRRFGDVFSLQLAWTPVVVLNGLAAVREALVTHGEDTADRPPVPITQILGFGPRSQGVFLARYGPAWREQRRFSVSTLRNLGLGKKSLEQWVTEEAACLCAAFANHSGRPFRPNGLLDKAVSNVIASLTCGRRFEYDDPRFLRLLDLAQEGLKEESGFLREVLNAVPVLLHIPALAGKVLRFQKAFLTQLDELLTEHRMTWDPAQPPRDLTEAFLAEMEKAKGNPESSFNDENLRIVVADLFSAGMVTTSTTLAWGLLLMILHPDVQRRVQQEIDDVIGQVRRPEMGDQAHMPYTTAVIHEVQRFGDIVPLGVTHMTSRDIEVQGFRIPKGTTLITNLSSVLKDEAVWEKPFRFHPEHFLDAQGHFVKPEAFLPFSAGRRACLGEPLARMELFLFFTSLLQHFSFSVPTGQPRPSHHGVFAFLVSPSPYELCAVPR", "test": "Inhibition of CYP2D6 in liver microsomes (unknown origin) assessed as formation of 1-hydroxybufuralol from bufuralol in presence of NADPH by LC-MS/MS analysis", "assay_type": "ADME"}, "Coagulation factor IX [2]": {"target": "Coagulation factor IX (Homo sapiens, UniProt P00740)", "sequence (P00740 47-191 limits assumed)": "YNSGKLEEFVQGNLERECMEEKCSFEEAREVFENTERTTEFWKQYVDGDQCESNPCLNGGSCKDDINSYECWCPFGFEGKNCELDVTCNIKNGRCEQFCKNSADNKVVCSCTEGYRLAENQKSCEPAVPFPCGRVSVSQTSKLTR", "sequence (P00740 227-461 limits assumed)": "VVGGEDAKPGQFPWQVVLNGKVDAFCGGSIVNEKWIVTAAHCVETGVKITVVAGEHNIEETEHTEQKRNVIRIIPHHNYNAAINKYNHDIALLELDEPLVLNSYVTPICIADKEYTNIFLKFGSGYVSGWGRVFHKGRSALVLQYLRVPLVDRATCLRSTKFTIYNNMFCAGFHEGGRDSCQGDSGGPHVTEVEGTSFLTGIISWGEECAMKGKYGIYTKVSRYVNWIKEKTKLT"}, "[3]": {"test": "AUCt in rat at 1 mg/kg, iv", "assay_type": "ADME, organism-based", "conditions": "in vivo"}, "Plasma [4]": {"system": "Plasma", "test": "Anticoagulant activity in rat plasma assessed as concentration required to double activated partial thromboplastin time", "assay_type": "functional"}, "[5]": {"test": "Total clearance in rat at 1 mg/kg, iv", "assay_type": "ADME, organism-based", "conditions": "in vivo"}, "Cytochrome P450 1A2 [6]": {"target": "T1, Cytochrome P450 1A2 (Homo sapiens, UniProt P05177)", "T1 sequence (P05177 whole entry)": "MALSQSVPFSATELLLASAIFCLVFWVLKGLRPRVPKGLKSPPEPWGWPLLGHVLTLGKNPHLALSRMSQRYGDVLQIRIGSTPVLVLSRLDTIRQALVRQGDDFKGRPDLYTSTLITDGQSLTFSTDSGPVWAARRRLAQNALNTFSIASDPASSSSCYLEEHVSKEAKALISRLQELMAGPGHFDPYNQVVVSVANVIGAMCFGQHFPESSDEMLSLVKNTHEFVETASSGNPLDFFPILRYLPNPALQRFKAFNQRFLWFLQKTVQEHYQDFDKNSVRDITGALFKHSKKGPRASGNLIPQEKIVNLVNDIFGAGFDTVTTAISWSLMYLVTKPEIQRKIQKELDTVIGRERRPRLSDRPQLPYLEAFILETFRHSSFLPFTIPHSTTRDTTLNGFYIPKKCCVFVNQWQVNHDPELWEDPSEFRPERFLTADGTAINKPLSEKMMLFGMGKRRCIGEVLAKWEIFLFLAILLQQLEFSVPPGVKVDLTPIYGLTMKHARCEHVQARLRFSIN", "test": "Induction of CYP1A2 in hepatocytes (unknown origin) assessed as 7-ethoxyresorufin O-dealkylation at 0.3 to 10 uM treated for 3 days", "assay_type": "ADME, cell-based", "conditions": "72 h"}, "[7]": {"test": "Apparent permeability of the compound at 5 uM after 5 hrs by PAMPA", "assay_type": "physicochemical"}, "Cytochrome P450 2C9": {"target": "Cytochrome P450 2C9 (Homo sapiens, UniProt P11712)", "sequence (P11712 whole entry)": "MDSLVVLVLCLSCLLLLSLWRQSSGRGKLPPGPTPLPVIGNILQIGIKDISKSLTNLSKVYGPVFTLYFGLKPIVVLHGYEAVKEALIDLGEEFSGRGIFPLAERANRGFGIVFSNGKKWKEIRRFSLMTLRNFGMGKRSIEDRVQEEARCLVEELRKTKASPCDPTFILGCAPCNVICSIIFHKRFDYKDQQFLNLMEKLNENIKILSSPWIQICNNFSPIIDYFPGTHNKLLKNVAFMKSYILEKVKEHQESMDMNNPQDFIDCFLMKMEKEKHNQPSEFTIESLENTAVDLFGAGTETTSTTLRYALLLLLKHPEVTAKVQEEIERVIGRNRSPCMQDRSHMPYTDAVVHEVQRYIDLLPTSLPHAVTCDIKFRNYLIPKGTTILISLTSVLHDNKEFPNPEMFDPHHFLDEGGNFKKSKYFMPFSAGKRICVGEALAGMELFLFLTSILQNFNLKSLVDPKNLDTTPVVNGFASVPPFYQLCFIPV", "test": "Inhibition of CYP2C9 in liver microsomes (unknown origin) assessed as formation of 4-hydroxydiclofenac from diclofenac in presence of NADPH by LC-MS/MS analysis", "assay_type": "ADME"}, "[8]": {"test": "Half life in dog at 0.3 mg/kg, iv", "assay_type": "ADME, organism-based, Canis lupus familiaris", "conditions": "in vivo"}, "[9]": {"test": "Tmax in rat at 10 mg/kg, po", "assay_type": "ADME, organism-based", "conditions": "in vivo"}, "[10]": {"test": "Volume of distribution at steady state in rat at 1 mg/kg, iv", "assay_type": "ADME, organism-based", "conditions": "in vivo, read-out: Vdss"}, "Plasma [11]": {"system": "Plasma", "test": "Anticoagulant activity in human plasma assessed as concentration required to double activated partial thromboplastin time", "assay_type": "functional"}, "Cytochrome P450 1A2 [12]": {"target": "T1, Cytochrome P450 1A2", "test": "Inhibition of CYP1A2 in liver microsomes (unknown origin) assessed as formation of acetaminophen from phenacetin in presence of NADPH by LC-MS/MS analysis", "assay_type": "ADME"}, "Plasma [13]": {"system": "Plasma", "test": "Effect on prothrombin time in human plasma assessed as concentration required to double prothrombin time", "assay_type": "functional"}, "[14]": {"test": "Unbound plasma concentration in human at 10 uM measured after 4 hrs by equilibrium dialysis method", "assay_type": "ADME, cell-free"}, "[15]": {"test": "Unbound plasma concentration in rat at 10 uM measured after 4 hrs by equilibrium dialysis method", "assay_type": "ADME, cell-free"}, "[16]": {"test": "Volume of distribution at steady state in dog at 0.3 mg/kg, iv", "assay_type": "ADME, organism-based, Canis lupus familiaris", "conditions": "in vivo, read-out: Vdss"}, "Cytochrome P450 3A4 [17]": {"target": "T2, Cytochrome P450 3A4 (Homo sapiens, UniProt P08684)", "T2 sequence (P08684 whole entry)": "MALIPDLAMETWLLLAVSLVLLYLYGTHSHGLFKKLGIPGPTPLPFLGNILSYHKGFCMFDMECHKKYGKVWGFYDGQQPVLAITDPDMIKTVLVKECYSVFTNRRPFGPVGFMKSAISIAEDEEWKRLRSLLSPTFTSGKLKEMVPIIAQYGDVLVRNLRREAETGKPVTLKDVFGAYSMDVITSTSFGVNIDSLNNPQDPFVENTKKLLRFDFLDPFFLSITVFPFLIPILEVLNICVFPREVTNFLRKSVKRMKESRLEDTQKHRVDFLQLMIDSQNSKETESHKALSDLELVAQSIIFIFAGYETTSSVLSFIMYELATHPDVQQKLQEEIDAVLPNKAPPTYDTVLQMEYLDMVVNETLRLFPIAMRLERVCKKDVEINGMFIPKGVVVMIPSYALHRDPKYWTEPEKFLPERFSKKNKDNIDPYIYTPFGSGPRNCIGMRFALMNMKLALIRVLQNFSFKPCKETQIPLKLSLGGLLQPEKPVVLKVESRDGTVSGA", "test": "Induction of CYP3A4 in hepatocytes (unknown origin) assessed as midazolam 1-hydroxylation at 0.3 to 10 uM treated for 3 days", "assay_type": "ADME, cell-based", "conditions": "72 h"}, "Plasma [18]": {"system": "Plasma", "test": "Effect on prothrombin time in rat plasma assessed as concentration required to double prothrombin time", "assay_type": "functional"}, "[19]": {"test": "Oral bioavailability in rat at 10 mg/kg", "assay_type": "ADME, organism-based", "conditions": "in vivo"}, "Coagulation factor IX [20]": {"target": "Coagulation factor IX (Rattus norvegicus, UniProt P16296)", "sequence (P16296 40-185 limits assumed)": "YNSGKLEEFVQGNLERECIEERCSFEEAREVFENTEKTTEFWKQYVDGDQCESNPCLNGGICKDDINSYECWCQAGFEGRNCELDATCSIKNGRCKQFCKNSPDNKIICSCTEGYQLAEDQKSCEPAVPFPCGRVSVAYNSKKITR", "sequence (P16296 228-462 limits assumed)": "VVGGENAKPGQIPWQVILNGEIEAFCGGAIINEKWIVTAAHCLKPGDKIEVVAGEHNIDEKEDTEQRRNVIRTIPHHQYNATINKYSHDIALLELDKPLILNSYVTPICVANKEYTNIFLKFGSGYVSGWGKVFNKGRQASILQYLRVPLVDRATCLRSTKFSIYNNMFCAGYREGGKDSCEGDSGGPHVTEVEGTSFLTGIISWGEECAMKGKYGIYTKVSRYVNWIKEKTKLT", "test": "Inhibition of rat coagulation factor 9a"}, "[21]": {"test": "AUCt in rat at 10 mg/kg, po", "assay_type": "ADME, organism-based", "conditions": "in vivo"}, "[22]": {"test": "Metabolic stability in human liver microsomes at 1 uM measured after 20 mins in presence of NADP+ by LC-MS/MS method", "assay_type": "ADME, microsome", "conditions": "read-out: Stability"}, "[23]": {"test": "Solubility of the compound in phosphate buffer at pH 7.4 measured after 1.5 hrs by UV absorbance method", "assay_type": "physicochemical"}, "[24]": {"test": "Metabolic stability in dog liver microsomes at 1 uM measured after 20 mins in presence of NADP+ by LC-MS/MS method", "assay_type": "ADME, Canis lupus familiaris, microsome", "conditions": "read-out: Stability"}, "[25]": {"test": "AUCt in dog at 0.3 mg/kg, iv", "assay_type": "ADME, organism-based, Canis lupus familiaris", "conditions": "in vivo"}, "Coagulation factor X": {"target": "Coagulation factor X (Homo sapiens, UniProt P00742)", "sequence (P00742 41-179 limits assumed)": "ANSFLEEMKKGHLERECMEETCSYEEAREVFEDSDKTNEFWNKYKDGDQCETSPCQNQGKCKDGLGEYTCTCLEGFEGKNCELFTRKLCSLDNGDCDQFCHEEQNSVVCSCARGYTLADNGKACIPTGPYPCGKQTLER", "sequence (P00742 235-488 limits assumed)": "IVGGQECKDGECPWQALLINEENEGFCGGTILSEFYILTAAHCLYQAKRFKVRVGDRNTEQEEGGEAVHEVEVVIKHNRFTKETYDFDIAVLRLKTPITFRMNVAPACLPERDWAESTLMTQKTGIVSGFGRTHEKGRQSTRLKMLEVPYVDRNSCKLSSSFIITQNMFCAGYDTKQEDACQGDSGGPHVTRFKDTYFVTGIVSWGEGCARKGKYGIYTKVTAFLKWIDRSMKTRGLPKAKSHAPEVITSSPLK", "description": "Inhibition of human coagulation factor 10a"}, "[26]": {"test": "Half life in rat at 1 mg/kg, iv", "assay_type": "ADME, organism-based", "conditions": "in vivo"}, "Cytochrome P450 3A4 [27]": {"target": "T2, Cytochrome P450 3A4", "test": "Inhibition of CYP3A4 in liver microsomes (unknown origin) assessed as formation of 1-hydroxymidazolam from midazolam in presence of NADPH by LC-MS/MS analysis", "assay_type": "ADME"}, "[28]": {"test": "Unbound plasma concentration in dog at 10 uM measured after 4 hrs by equilibrium dialysis method", "assay_type": "ADME, cell-free, Canis lupus familiaris"}, "Cytochrome P450 2C19": {"target": "Cytochrome P450 2C19 (Homo sapiens, UniProt P33261)", "sequence (P33261 whole entry)": "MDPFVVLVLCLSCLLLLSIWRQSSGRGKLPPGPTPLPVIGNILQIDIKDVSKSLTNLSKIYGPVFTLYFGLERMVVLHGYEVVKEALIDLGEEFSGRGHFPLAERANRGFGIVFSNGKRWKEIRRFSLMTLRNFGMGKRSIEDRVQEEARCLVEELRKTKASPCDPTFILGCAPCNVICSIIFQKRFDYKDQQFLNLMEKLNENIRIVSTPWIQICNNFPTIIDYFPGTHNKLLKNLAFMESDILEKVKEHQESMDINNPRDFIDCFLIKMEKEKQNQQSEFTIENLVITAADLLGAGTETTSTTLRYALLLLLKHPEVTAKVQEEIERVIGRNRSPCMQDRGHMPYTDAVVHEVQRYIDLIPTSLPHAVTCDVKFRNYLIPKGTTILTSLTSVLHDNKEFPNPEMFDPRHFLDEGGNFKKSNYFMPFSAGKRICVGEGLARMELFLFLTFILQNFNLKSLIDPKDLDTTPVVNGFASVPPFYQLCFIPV", "test": "Inhibition of CYP2C19 in liver microsomes (unknown origin) assessed as formation of 4-hydroxymephenytoin from S-mephenytoin in presence of NADPH by LC-MS/MS analysis", "assay_type": "ADME"}, "[29]": {"test": "Apparent permeability in MDCK2-MDR1 cells at 5 uM after 1 hr by LC-MS/MS method", "assay_type": "ADME, cell-based, Canis lupus familiaris", "conditions": "dog, MDCK-MDR1"}, "[30]": {"test": "Cmax in rat at 10 mg/kg, po", "assay_type": "ADME, organism-based", "set-up": "dose 10 mg/kg, route oral", "conditions": "in vivo"}, "[31]": {"test": "Metabolic stability in rat liver microsomes at 1 uM measured after 20 mins in presence of NADP+ by LC-MS/MS method", "assay_type": "ADME, microsome", "conditions": "read-out: Stability"}, "[32]": {"test": "Apparent permeability in MDCK cells at 5 uM after 1 hr by LC-MS/MS method", "assay_type": "ADME, cell-based, Canis lupus familiaris", "conditions": "dog"}}}
{"smiles": "Cc1ncn(-c2ccc(C(=O)N[C@H]3[C@H]4CC[C@H]3N(c3ncc(Cl)c5cnoc35)C4)c(Cl)c2)n1", "values": [{"measurement": "clearance", "setting": "[1]", "result": 3.5, "unit": "mL/min/kg"}, {"measurement": "IC50", "setting": "Cytochrome P450 2D6", "result": "> 10", "unit": "µM"}, {"measurement": "IC50", "setting": "Coagulation factor IX [2]", "result": 4.9, "unit": "nM"}, {"measurement": "AUC(0-t)", "setting": "[3]", "result": 1010, "unit": "ng·h/mL"}, {"measurement": "2aPTT", "setting": "Plasma [4]", "result": 6.2, "unit": "µM"}, {"measurement": "clearance", "setting": "[5]", "result": 16.5, "unit": "mL/min/kg"}, {"measurement": "Activity", "setting": "Cytochrome P450 1A2 [6]", "result": "Not Active"}, {"measurement": "Papp at 5 h, 5 µM", "setting": "[7]", "result": 6.5, "unit": "×10⁻⁶ cm/s"}, {"measurement": "IC50", "setting": "Cytochrome P450 2C9", "result": "> 10", "unit": "µM"}, {"measurement": "half-life", "setting": "[8]", "result": 282, "unit": "min"}, {"measurement": "Tmax", "setting": "[9]", "result": 1, "unit": "h"}, {"measurement": "Vd", "setting": "[10]", "result": 0.9, "unit": "L/kg"}, {"measurement": "2aPTT", "setting": "Plasma [11]", "result": 5.8, "unit": "µM"}, {"measurement": "IC50", "setting": "Cytochrome P450 1A2 [12]", "result": "> 10", "unit": "µM"}, {"measurement": "2PT", "setting": "Plasma [13]", "result": ">200", "unit": "µM"}, {"measurement": "fraction unbound at 4 h, 10 µM", "setting": "[14]", "result": 0.041}, {"measurement": "fraction unbound at 4 h, 10 µM", "setting": "[15]", "result": 0.051}, {"measurement": "Vd", "setting": "[16]", "result": 1.3, "unit": "L/kg"}, {"measurement": "Activity", "setting": "Cytochrome P450 3A4 [17]", "result": "Not Active"}, {"measurement": "2PT", "setting": "Plasma [18]", "result": ">200", "unit": "µM"}, {"measurement": "bioavailability", "setting": "[19]", "result": 51, "unit": "%"}, {"measurement": "IC50", "setting": "Coagulation factor IX [20]", "result": 3.7, "unit": "nM"}, {"measurement": "AUC(0-t)", "setting": "[21]", "result": 5150, "unit": "ng·h/mL"}, {"measurement": "remaining at 20 min, 1 µM", "setting": "[22]", "result": 11, "unit": "%"}, {"measurement": "solubility at 1.5 h", "setting": "[23]", "result": 29, "unit": "µM"}, {"measurement": "remaining at 20 min, 1 µM", "setting": "[24]", "result": 11, "unit": "%"}, {"measurement": "AUC(0-t)", "setting": "[25]", "result": 1410, "unit": "ng·h/mL"}, {"measurement": "IC50", "setting": "Coagulation factor X", "result": 31, "unit": "µM"}, {"measurement": "half-life", "setting": "[26]", "result": 48, "unit": "min"}, {"measurement": "IC50", "setting": "Cytochrome P450 3A4 [27]", "result": "> 10", "unit": "µM"}, {"measurement": "fraction unbound at 4 h, 10 µM", "setting": "[28]", "result": 0.054}, {"measurement": "IC50", "setting": "Cytochrome P450 2C19", "result": "> 10", "unit": "µM"}, {"measurement": "Papp at 1 h, 5 µM", "setting": "[29]", "result": 5.8, "unit": "×10⁻⁶ cm/s"}, {"measurement": "Cmax", "setting": "[30]", "result": 1600, "unit": "ng/mL"}, {"measurement": "remaining at 20 min, 1 µM", "setting": "[31]", "result": 24, "unit": "%"}, {"measurement": "Papp at 1 h, 5 µM", "setting": "[32]", "result": 14.5, "unit": "×10⁻⁶ cm/s"}]}
